Laboratory results taken from patent publication US4299767A, “Benzodiazepine derivatives” (Hoffmann-La Roche Inc., priority 1978, dated 1981).

Assays:
[1] = system: intestinal resorption of cholesterol; assay: inhibition of the intestinal resorption of cholesterol (cholesterol recovery, CHOREC); assay type: in vivo, normal female Fullinsdorf albino rats; settings: rats
Protocol: The compounds to be tested are administered to groups of 6 normal female Fullinsdorf albino rats (body weight about 70 g) by oral intubation. This is followed immediately by oral intubation of a test meal containing radioactive cholesterol. Consecutively, feces are collected for three days, freeze dried and pulverized. An aliquot is burned for evaluation of fecal radioactivity. Controls excrete about 40-50% of the dietary radioactive cholesterol called cholesterol recovery (CHOREC) and arbitrarily set 100%. Animals treated with a substance inhibiting the intestinal resorption of cholesterol show a higher excretion of radioactive cholesterol in comparison with controls. The cholesterol recovery (CHOREC) of treated animals is expressed in % of controls.
(§1) The following Table contains results obtained with the aforementioned particularly preferred compounds inhibiting the intestinal resorption of cholesterol. For each of these compounds there are given the dose(s) administered (in μMol/kg p.o) as well as the cholesterol recovery (CHOREC), expressed in % of controls. Moreover, the Table contains data relating to the acute toxicity of the compounds investigated (LD 50 in mg/kg in the case of a single oral administration to rats): […]

[2] = acute toxicity, single oral administration to rats; settings: rat, in vivo, p.o.
Text: as §1

Compound | cholesterol recovery (CHOREC), in % of controls ([1]; 10 μMol/kg p.o.) | cholesterol recovery (CHOREC), in % of controls ([1]; 30 μMol/kg p.o.) | cholesterol recovery (CHOREC), in % of controls ([1]; 100 μMol/kg p.o.) | cholesterol recovery (CHOREC), in % of controls ([1]; 1000 μMol/kg p.o.) | LD50 [2] | cholesterol recovery (CHOREC), in % of controls ([1]; 300 μMol/kg p.o.)
CC1N=C(c2ccccc2Cl)c2c(ccc(NC(=O)NCCO)c2Br)N(C)C1=O (racemic) [Example 48, rac-1-[6-bromo-5-(o-chlorophenyl)-2,3-dihydro-1,3-dimethyl-2-oxo-2H-1,4-benzodiazepin-7-yl]-3-(2-hydroxyethyl)urea] | 150% | 157% | 168% | 187% | > 5000 mg/kg | –
CC1N=C(c2ccccc2F)c2c(ccc(NC(=O)NCCO)c2Br)N(C)C1=O (racemic) [Example 50, rac-1-[6-bromo-5-(o-fluorophenyl)-2,3-dihydro-1,3-dimethyl-2-oxo-1H-1,4-benzodiazepin-7-yl]-3-(2-hydroxyethyl)urea] | 132% | 160% | 155% | 189% | > 5000 mg/kg | 169%
CN1C(=O)CN=C(c2ccccc2F)c2c1ccc(NC(=O)N1CCOCC1)c2Cl [Example 51, N-[6-chloro-5-(o-fluorophenyl)-2,3-dihydro-1-methyl-2-oxo-1H-1,4-benzodiazepin-7-yl]-4-morpholinecarboxamide] | – | – | – | 186% | 1250 to 2500 mg/kg | –
CC1N=C(c2ccccc2Cl)c2c(ccc(NC(=O)NCCO)c2Cl)N(C)C1=O (racemic) [Example 49, rac-1-[6-chloro-5-(o-chlorophenyl)-2,3-dihydro-1,3-dimethyl-2-oxo-1H-1,4-benzodiazepin-7-yl]-3-(2-hydroxyethyl)urea] | – | – | – | 188% | > 5000 mg/kg | –
